Measured values taken from US5496854A, “Metallocenes as anti-tumor drugs” (Technion Research & Development Foundation Ltd., priority 1992, dated 1996).
Read-outs that look alike come from different tables or passages of the source.

How the values were obtained:
HT-29 Colon Carcinoma = assay: Cytotoxicity (growth inhibition), HT-29
Source text: (§1) The value of the ratio Ti/Pt represents the relative activity of TPE as compared with that of cis-platinum.
(§2) The excipient can serve as an agent for promoting absorption of the medicament by the body or as formulation auxiliary, sweetener, flavouring agent, colourant or preservative. […] The novel titanocene derivatives, according to the present invention, can be prepared from common chemical reagents using standard equipment. It should be realized, that the Examples for their preparations presented hereinafter are only for illustration and many other routes may be conceived for their syntheses.

[1] = test system: NHEK Normal Keratino Epithelial; assay: Cytotoxicity (growth inhibition), NHEK
Source text: as §1, §2

[2] = test system: Capan 1 Pancreas Carcinoma; assay: Cytotoxicity (growth inhibition), Capan 1
Source text: as §1, §2

[3] = test system: CHO Chinese Hamstead Ovary; assay: Cytotoxicity (growth inhibition), CHO
Source text: as §1, §2

SK-Mel-28 Melanoma = assay: Cytotoxicity (growth inhibition), SK-Mel-28
Source text: as §1, §2

[4] = test system: Ovcar-3 Ovarian Carcinoma; assay: Cytotoxicity (growth inhibition), Ovcar-3
Source text: as §1, §2

P-388 Mouse Leukemia = assay: Cytotoxicity (growth inhibition), P-388
Source text: as §1, §2

HL-60 B-cell Leukemia = assay: Cytotoxicity (growth inhibition), HL-60
Source text: as §1, §2

H-322 Lung Carcinoma = assay: Cytotoxicity (growth inhibition), H-322
Source text: as §1, §2

[5] = test system: HMEC Normal Human Mammary; assay: Cytotoxicity (growth inhibition), HMEC
Source text: as §1, §2

MCF-7 Breast Cancer = assay: Cytotoxicity (growth inhibition), MCF-7
Source text: as §1, §2

Molt-4 T-cell Leukemia = assay: Cytotoxicity (growth inhibition), Molt-4; conditions: for cytotoxicity (log.): molt-4 cells
Source text: as §1, §2

NHDF Normal Human Skin = assay: Cytotoxicity (growth inhibition), NHDF
Source text: as §1, §2

UCLA-P3 Lung Carcinoma = assay: Cytotoxicity (growth inhibition), UCLA-P3
Source text: as §1, §2

tumor = conditions: prior art; cited from earlier work

For `COC(=O)c1ccc([O-])cc1.COC(=O)c1ccc([O-])cc1.[Ti+4].c1cc[cH-]c1.c1cc[cH-]c1` [TPE, Bis(4-methoxycarbonylphenolato)bis(n^5-cyclopentadienyl)titanium(IV)], the “ratio Ti/Pt” value (HT-29 Colon Carcinoma; HT-29, relative activity of TPE as compared with cis-platinum) was 200, the IC50 (HT-29 Colon Carcinoma; ht-29 cells) was 3.9 µM and the “cytotoxicity (log.)” value (HT-29 Colon Carcinoma; ht-29 cells) was -5.41 log. (M). The “ratio Ti/Pt” value ([1]; NHEK, relative activity of TPE as compared with cis-platinum) was 200, the CC50 ([1]; human, nhek cells) was 3.1 µM and the “cytotoxicity (log.)” value ([1]; human, nhek cells) was -5.51 log. (M). For the same compound, the “ratio Ti/Pt” value ([2]; Capan 1, relative activity of TPE as compared with cis-platinum) was 10, the IC50 ([2]; capan 1 cells) was 0.39 µM and the “cytotoxicity (log.)” value ([2]; capan 1 cells) was -6.41 log. (M). For the same compound, the “ratio Ti/Pt” value ([3]; CHO, relative activity of TPE as compared with cis-platinum) was 2, the IC50 ([3]; cho cells) was 13 µM and the “cytotoxicity (log.)” value ([3]; cho cells) was -4.80 log. (M). The “ratio Ti/Pt” value (SK-Mel-28 Melanoma; SK-Mel-28, relative activity of TPE as compared with cis-platinum) was 10, the IC50 (SK-Mel-28 Melanoma; sk-mel-28 cells) was 1.6 µM and the “cytotoxicity (log.)” value (SK-Mel-28 Melanoma; sk-mel-28 cells) was -5.41 log. (M). For the same compound, the “ratio Ti/Pt” value ([4]; Ovcar-3, relative activity of TPE as compared with cis-platinum) was 10, the IC50 ([4]; ovcar-3 cells) was 6.3 µM and the “cytotoxicity (log.)” value ([4]; ovcar-3 cells) was -5.20 log. (M). The IC50 (P-388 Mouse Leukemia; p-388 cells) was 3.9 µM, the “cytotoxicity (log.)” value (P-388 Mouse Leukemia; p-388 cells) was -5.41 log. (M) and the “ratio Ti/Pt” value (HL-60 B-cell Leukemia; HL-60, relative activity of TPE as compared with cis-platinum) was 2. For the same compound, the IC50 (HL-60 B-cell Leukemia; hl-60 cells) was 3.1 µM, the “cytotoxicity (log.)” value (HL-60 B-cell Leukemia; hl-60 cells) was -5.70 log. (M) and the “ratio Ti/Pt” value (H-322 Lung Carcinoma; H-322, relative activity of TPE as compared with cis-platinum) was 100. The IC50 (H-322 Lung Carcinoma; h-322 cells) was 0.63 µM, the “cytotoxicity (log.)” value (H-322 Lung Carcinoma; h-322 cells) was -6.20 log. (M) and the “ratio Ti/Pt” value ([5]; HMEC, relative activity of TPE as compared with cis-platinum) was 20. The CC50 ([5]; human, hmec cells) was 3.1 µM, the “cytotoxicity (log.)” value ([5]; human, hmec cells) was -5.70 log. (M) and the “ratio Ti/Pt” value (MCF-7 Breast Cancer; MCF-7, relative activity of TPE as compared with cis-platinum) was 100. The IC50 (MCF-7 Breast Cancer; mcf-7 cells) was 2 µM, the “cytotoxicity (log.)” value (MCF-7 Breast Cancer; mcf-7 cells) was -5.70 log. (M) and the “ratio Ti/Pt” value (Molt-4 T-cell Leukemia; Molt-4, relative activity of TPE as compared with cis-platinum) was 10. For the same compound, the “cytotoxicity (log.)” value (Molt-4 T-cell Leukemia) was -6.00 log. (M), the “ratio Ti/Pt” value (NHDF Normal Human Skin; NHDF, relative activity of TPE as compared with cis-platinum) was 20 and the CC50 (NHDF Normal Human Skin; human, nhdf cells) was 1.6 µM. The “cytotoxicity (log.)” value (NHDF Normal Human Skin; human, nhdf cells) was -5.41 log. (M), the “ratio Ti/Pt” value (UCLA-P3 Lung Carcinoma; UCLA-P3, relative activity of TPE as compared with cis-platinum) was 20 and the IC50 (UCLA-P3 Lung Carcinoma; ucla-p3 cells) was 3.1 µM. The “cytotoxicity (log.)” value (UCLA-P3 Lung Carcinoma; ucla-p3 cells) was -5.51 log. (M).
For “titanocene dichloride [TDC, reference compound]”, the IC50 (HT-29 Colon Carcinoma; read-out: IC50 (cytotoxic data), HT-29) is listed as 500 µM, the CC50 ([1]; read-out: IC50 (cytotoxic data), NHEK) is listed as 1000 µM and the anti-tumor activity (tumor) is listed as “very reactive anti-tumor reagent”. The IC50 ([2]; read-out: IC50 (cytotoxic data), Capan 1) was 500 µM, the IC50 ([3]; read-out: IC50 (cytotoxic data), CHO) was 1000 µM and the IC50 (SK-Mel-28 Melanoma; read-out: IC50 (cytotoxic data), SK-Mel-28) was 1000 µM. It also gave an IC50 ([4]; read-out: IC50 (cytotoxic data), Ovcar-3) of 1000 µM, an IC50 (P-388 Mouse Leukemia; read-out: IC50 (cytotoxic data), P-388) of 500 µM and an IC50 (HL-60 B-cell Leukemia; read-out: IC50 (cytotoxic data), HL-60) of 1000 µM. For the same compound, the IC50 (H-322 Lung Carcinoma; read-out: IC50 (cytotoxic data), H-322) was 1000 µM, the CC50 ([5]; read-out: IC50 (cytotoxic data), HMEC) was 130 µM and the IC50 (MCF-7 Breast Cancer; read-out: IC50 (cytotoxic data), MCF-7) was 1000 µM. The IC50 (Molt-4 T-cell Leukemia; read-out: IC50 (cytotoxic data), Molt-4) was 1000 µM, the CC50 (NHDF Normal Human Skin; read-out: IC50 (cytotoxic data), NHDF) was 1000 µM and the IC50 (UCLA-P3 Lung Carcinoma; read-out: IC50 (cytotoxic data), UCLA-P3) was 1000 µM.
In the case of `COCCOC(=O)c1ccc([O-])cc1.COCCOC(=O)c1ccc([O-])cc1.[Ti+4].c1cc[cH-]c1.c1cc[cH-]c1` [TMEM, Bis[4-(2-methoxy)ethoxycarbonylphenolato]bis(n^5-cyclopentadienyl)titanium(IV)], the “cytotoxicity (log.)” value (HT-29 Colon Carcinoma; ht-29 cells) is reported as -4.60 log. (M), the “cytotoxicity (log.)” value ([2]; capan 1 cells) is reported as -4.89 log. (M) and the “cytotoxicity (log.)” value ([3]; cho cells) is reported as -4.30 log. (M). The “cytotoxicity (log.)” value (SK-Mel-28 Melanoma; sk-mel-28 cells) was -4.60 log. (M), the “cytotoxicity (log.)” value ([4]; ovcar-3 cells) was -4.60 log. (M) and the “cytotoxicity (log.)” value (HL-60 B-cell Leukemia; hl-60 cells) was -4.60 log. (M). The “cytotoxicity (log.)” value (H-322 Lung Carcinoma; h-322 cells) was -4.89 log. (M), the “cytotoxicity (log.)” value ([5]; human, hmec cells) was -4.60 log. (M) and the “cytotoxicity (log.)” value (MCF-7 Breast Cancer; mcf-7 cells) was -4.89 log. (M). For the same compound, the “cytotoxicity (log.)” value (Molt-4 T-cell Leukemia) was -7.00 log. (M) and the “cytotoxicity (log.)” value (NHDF Normal Human Skin; human, nhdf cells) was -4.30 log. (M).
In the case of `CCOC(=O)c1ccc([O-])cc1.CCOC(=O)c1ccc([O-])cc1.[Ti+4].c1cc[cH-]c1.c1cc[cH-]c1` [TEE-1, Bis(4-ethoxycarbonylphenolato)bis(n^5-cyclopentadienyl)titanium(IV)], the “cytotoxicity (log.)” value (HT-29 Colon Carcinoma; ht-29 cells) is reported as -5.20 log. (M), the “cytotoxicity (log.)” value ([1]; human, nhek cells) is reported as -5.80 log. (M) and the “cytotoxicity (log.)” value ([2]; capan 1 cells) is reported as -5.51 log. (M). The “cytotoxicity (log.)” value ([3]; cho cells) was -4.60 log. (M), the “cytotoxicity (log.)” value (SK-Mel-28 Melanoma; sk-mel-28 cells) was -5.51 log. (M) and the “cytotoxicity (log.)” value ([4]; ovcar-3 cells) was -5.20 log. (M). For the same compound, the “cytotoxicity (log.)” value (P-388 Mouse Leukemia; p-388 cells) was -4.89 log. (M), the “cytotoxicity (log.)” value (HL-60 B-cell Leukemia; hl-60 cells) was -5.51 log. (M) and the “cytotoxicity (log.)” value (H-322 Lung Carcinoma; h-322 cells) was -5.80 log. (M). For the same compound, the “cytotoxicity (log.)” value ([5]; human, hmec cells) was -6.11 log. (M), the “cytotoxicity (log.)” value (MCF-7 Breast Cancer; mcf-7 cells) was -5.80 log. (M) and the “cytotoxicity (log.)” value (Molt-4 T-cell Leukemia) was -7.00 log. (M). For the same compound, the “cytotoxicity (log.)” value (NHDF Normal Human Skin; human, nhdf cells) was -4.89 log. (M) and the “cytotoxicity (log.)” value (UCLA-P3 Lung Carcinoma; ucla-p3 cells) was -5.20 log. (M).
In the case of `COCCOCCOC(=O)c1ccc([O-])cc1.COCCOCCOC(=O)c1ccc([O-])cc1.[Ti+4].c1cc[cH-]c1.c1cc[cH-]c1` [TEG, Bis[4-(2-(2-methoxyethoxy)ethoxy]carbonylphenolato]bis(n^5-cyclopentadienyl)titanium(IV)], the “cytotoxicity (log.)” value ([4]; ovcar-3 cells) is reported as -4.00 log. (M) and the “cytotoxicity (log.)” value (Molt-4 T-cell Leukemia) is reported as -4.00 log. (M).
With `C[N+](C)(C)CCOC(=O)c1ccc([O-])cc1.C[N+](C)(C)CCOC(=O)c1ccc([O-])cc1.[Ti+4].c1cc[cH-]c1.c1cc[cH-]c1` [TCE, Bis[4-(2-trimethylammono)ethoxycarbonylphenolato]bis(n^5-cyclopentadienyl)titanium(IV)] the “cytotoxicity (log.)” value (HT-29 Colon Carcinoma; ht-29 cells) was -4.00 log. (M), the “cytotoxicity (log.)” value ([2]; capan 1 cells) was -4.00 log. (M) and the “cytotoxicity (log.)” value ([4]; ovcar-3 cells) was -4.00 log. (M). The “cytotoxicity (log.)” value (H-322 Lung Carcinoma; h-322 cells) was -4.00 log. (M), the “cytotoxicity (log.)” value (MCF-7 Breast Cancer; mcf-7 cells) was -4.30 log. (M) and the “cytotoxicity (log.)” value (Molt-4 T-cell Leukemia) was -4.00 log. (M).
